Test results: patent US8920789B2, “Use of polymer D-lactic acid (PDLA) or equivalents thereof to inhibit growth of cancer cells and diagnose cancers” (The United States of America as represented by the …, priority 2011, dated 2014)

Key:
[1] = Interference with l-lactate measurement in saline (L-Lactate Accuvin test strips); details: d-lactic acid (0.05 mg) + l-lactic acid (0.06 mg)
Description: Forty mg of d-lactic acid (Sigma-Aldrich, St. Louis, Mo.; catalog no. L0625) was polymerized in a microwave oven according to the method of Pandey and Aswath (J Biomater Sci Polym Ed. 2009; 20(1):33-48). Briefly, d-lactic acid was transferred to 2 ml Reacti-Vials (Pierce Chemical Co., Rockford, Ill.) and the polymerization was carried out vented in a GE Spacemaker Model JVM 1650WH05 (Serial #900524B; manufactured April 2006) with an RF output frequency of 2450 MHz in the absence of any added solvent or catalyst. Polymerization was carried out starting at Power 1 setting on the microwave and weighing at 30 second intervals. […] Weight loss was from water during polymer esterification and dehydration. During the course of the microwave process, d-lactic acid crystals undergo a state change from a solid to a liquid and then to a gel at the end of the process. Similar procedure was used to produce PLLA with l-lactic acid.
[…] Measurement of l-lactate with L-Lactate Accuvin Test strips (Accuvin LLC, Napa, Ca), using stereospecific lactate dehydrogenase and a tetrazolium color indicator, measured less l-lactate (interference) in the experimental sample as evidenced by colorimetric determination. Experimental sample vs, control measured 10 mg/L vs, 50 mg/L of l-lactate. Other relevant tests using similar methodology and D-Lactate Accuvin Test strips are as follows:

[2] = Interference with d-lactate measurement in saline (D-Lactate Accuvin test strips); details: similar methodology

| SMILES | l-lactate test strip [1] [mg/L] | Interference with lactate measurement (in words) [2] |
| --- | --- | --- |
| C[C@@H](O)C(=O)O [d-lactic acid] | 50 | – |
| C[C@H](O)C(=O)O [l-lactic acid] | – | No interference |
